According to patent publication US5340818A, “Methods and compositions for inhibiting tumor cell growth” (priority 1993, dated 1994):
“And” between values parts separate entries of the source, which are not always exact repeats. Identical values can stand only once. Like-named read-outs stand apart in the source and are kept apart here.

Tests used:
[1] = test system: X5563 myeloma; details: ip, 30 × 1 × 8 mg/kg/day; cited from earlier work
[2] = test system: P1534 leukemia; details: ip, 30 × 1 × 10 mg/kg/day; cited from earlier work
[3] = test system: Sarcoma 180; details: ip, 30 × 1 × 10 mg/kg/day; cited from earlier work
[4] = test system: AKR leukemia; details: ip, 28 × 1 × 10 mg/kg/day; cited from earlier work
[5] = test system: Ridgeway osteogenic sarcoma; details: ip, 48 × 1 × 9 mg/kg/day; cited from earlier work
[6] = test system: L5178Y leukemia; details: ip, 28 × 1 × 10 mg/kg/day; cited from earlier work
[7] = test system: DNA; details: cited from earlier work
[8] = test system: Mecca lymphosarcoma; details: ip, 30 × 1 × 10 mg/kg/day; cited from earlier work
[9] = test system: S91 melanoma; details: ip, 36 × 1 × 9 mg/kg/day; cited from earlier work
[10] = test system: Shionogi carcinoma 115; details: ip, 36 × 1 × 9 mg/kg/day; cited from earlier work
[11] = test system: B82 leukemia; details: ip, 37.5 × 1 × 7 mg/kg/day; cited from earlier work
[12] = test system: C1498 leukemia; details: ip, 28 × 1 × 10 mg/kg/day; cited from earlier work
[13] = test system: tumors; details: literature, cited from earlier work
[14] = test system: L1210/0 cells; assay: Cross-resistance studies: growth inhibition of doxorubicin-sensitive L1210/0 cells; type: cell-based; details: L1210/0 (doxorubicin sensitive)
[15] = test system: BREI; assay: Survival time evaluation, BREI (ip) in BDF1 mice; type: in vivo, mouse; parameters: Survival Time, individual mice / AST: unit not given here; details: for AST / Day 7 AWC / N/T (15 day survivors/total mice) / Survival Time, individual mice / % ILS: day 1, QDX4; for % ILS: 25% or greater indicates activity
Procedure: 0.2 ML BREI (ip) ca. 10 6 cells IN BDF1 (FEMALE) 19-21 g
DILUENT - COCKTAIL DIL 1:10 dextrose
SCHEDULE - DAY 1, QDX4 bid (ip) DAY 1, QDX4 per os

[16] = test system: L1210/Dx cells; assay: Cross-resistance studies: growth inhibition of doxorubicin-resistant L1210/Dx cells; type: cell-based
[17] = test system: L1210 leukemia; assay: L1210 leukemia survival time evaluation in BDF1 mice; details: for Day 6 AWC / MST / N/T (nine day survivors/total mice) / Survival Time, individual mice / % ILS (increase in lifespan): day 1, QDX4 ip; for % ILS (increase in lifespan): 25% or greater indicates activity

In the case of COc1cc2c(c3c1c(=O)c1ccccc1n3C)C=CC(C)(C)O2 [Compound 1, Acronycine], the Percent activity [1] is given as 100(8) Percent, the Percent activity [2] is given as 0% and the Percent activity [3] is given as 40(9) Percent. For the same compound, the Percent activity [4] was 78(5) Percent, the Percent activity [5] was 100(10) Percent and the Percent activity [6] was 62%. For the same compound, the “interaction with DNA, in words” value [7] was “did not interact with DNA”, the Percent activity [8] was 63(7) Percent and the Percent activity [9] was 100(4) Percent. The Percent activity [10] was 100(7) Percent, the Percent activity [11] was 61% and the Percent activity [12] was 79(7) Percent. For the same compound, the “antitumor activity, in words” value [13] was “broad spectrum of antitumor activity” and the “antitumor activity, in words” value ([13]; listed as acronycine) was “effective against a wide range of neoplasms”.
In the case of COc1c(OC)c(OC)c2c(c1O)c(=O)c1ccc(O)c(OC)c1n2C [Compound 31, Glyfoline], the IC50 [14] is reported as 2.09 µM, the AST ([15]; 100 mg/kg bid ip) is reported as 14.2 and the “Day 7 AWC” value ([15]; 100 mg/kg bid ip) is reported as “+1.0 g”. The “N/T (15 day survivors/total mice)” value ([15]; 100 mg/kg bid ip) was 0/5, the “Survival Time, individual mice” value ([15]; 100 mg/kg bid ip) was 13 and 14 and 17 and the “% ILS” value ([15]; 100 mg/kg bid ip) was 18%. For the same compound, the AST ([15]; 500 mg/kg p.o.) was greater than 19, the “Day 7 AWC” value ([15]; 500 mg/kg p.o.) was “+0.8 g” and the “N/T (15 day survivors/total mice)” value ([15]; 500 mg/kg p.o.) was 1/5. The “Survival Time, individual mice” value ([15]; 500 mg/kg p.o.) was 13 and 14 and 15 and > 40, the “% ILS” value ([15]; 500 mg/kg p.o.) was greater than 62% and the “tumorfree survival (one mouse)” value ([15]; oral route) was greater than 40 days. The “(IC50) 0/(IC50) Dx” value ([16]; L1210/0 and L1210/Dx) was 1.58, the IC50 ([16]; Mus musculus, L1210/Dx (doxorubicin resistant)) was 3.31 µM and the “Day 6 AWC” value ([17]; 6.25 mg/kg) was “+1.8 g”. The MST ([17]; 6.25 mg/kg) was 7.0, the “N/T (nine day survivors/total mice)” value ([17]; 6.25 mg/kg) was 0/2 and the “Survival Time, individual mice” value ([17]; 6.25 mg/kg) was 7. For the same compound, the “% ILS (increase in lifespan)” value ([17]; 6.25 mg/kg) was 0%, the “Day 6 AWC” value ([17]; 12.5 mg/kg) was “+2.0 g” and the MST ([17]; 12.5 mg/kg) was 8.0. For the same compound, the “N/T (nine day survivors/total mice)” value ([17]; 12.5 mg/kg) was 0/2, the “Survival Time, individual mice” value ([17]; 12.5 mg/kg) was 8 and the “% ILS (increase in lifespan)” value ([17]; 12.5 mg/kg) was 14%. The “antileukemic activity, in words” value ([17]; L1210, BDF mice, low doses, ip) was “some activity”.
